Test results: patent US6569881B1, “Substituted benzimidazole, the production thereof and the use thereof as means against parasitic protozoa” (Bayer Aktiengesellschaft, priority 1999, dated 2003)
Several values for one entry are separate records, joined by “and”; a condition that tells them apart may be missing. Equal values may be shown once.

What was measured:
Format in all cases: in vivo, chicken chicks
[1] = test system: Eimeria acervulina, Eimeria maxima and Eimeria tenella; experiment: Cage experiments coccidiosis/chicks, mixed experimental infection
Experimental: (§1) The efficacy of the compounds according to the invention can be confirmed, for example, in cage experiments using the following experimental arrangement, in which the animals are treated with the respective individual components and with the mixtures of the individual components.
(§2) An active compound-containing feed is prepared in such a way that the required amount of active compound is thoroughly mixed with a nutritionally balanced animal feed, e.g. with the chick feed indicated below.
(§3) 8 to 12 day-old male chicken chicks raised under coccidea-free conditions (e.g. LSL Brinkschulte/Senden) receive the compounds according to the invention (test substances) from 3 days before (day -3) the infection (=a.i.) until 8 (9) days after the infection (=p.i.) with the feed in the concentration indicated in ppm. Three animals are kept in each cage. Per dose, one to a number of groups of this type are employed. Infection is carried out by means of a stomach tube directly into the crop using approximately 100,000 sporulated oocysts of Eimeria acervulina and with in each case approximately 30,000 oocysts of E. maxima and 40,000 sporulated oocysts of E. tenella. These are highly virulent strains. The exact infectious dose is adjusted such that if possible one of three experimentally infected untreated chicks dies due to infection. For the assessment of the efficacy, the following criteria are taken into consideration: weight increase from the start of the experiment to the end of the experiment, death rate due to infection, macroscopic assessment of the faeces with respect to diarrhoea and excretion of blood on days 5 and 7 p.i. (grade 0 to 6), macroscopic grade of the intestinal mucous membrane, in particular of the cecums (grade 0 to 6) and the oocyst excretion and also the proportion (in %) of the oocysts sporulating within 24 hours. The number of oocysts in the faeces was determined with the aid of the McMaster counting chamber (see Engelbrecht and coworkers “Parasitologische Arbeitsmethoden in Medizin und Veterinärmedizin, [Parasitological working methods in medicine and veterinary medicine] Akademie-Verlag, Berlin (1965)). The individual findings are related to the untreated noninfected control groups and an overall grade is calculated (cf. A. Haberkorn (1986), pp. 263 to 270 in Research in Avian Coccidiosis ed L. R. McDougald, L. P. Joyner, P. L. Long Proceedings of the Georgia Coccidiosis Conference Nov, 18-20, 1985 Athens/Ga. USA).
In the column “ppm”, the concentration of the active compound employed in the feed is indicated in ppm.
In the column “mortality”, the percentage of the animals which have died is indicated under % and the number of the animals which have died/animals employed in the experiment is indicated under n.
In the column “weight % of not inf. control”, the ratio of the weight of the treated animals to the weight of the noninfected control group is indicated.
(§4) In the columns “dropping scores”, “lesion score” and “oocyst control”, individual details of the action are given.
In the column “% efficacy”, the overall rating is assessed; 0% means no action, 100% means complete action.

[2] = test system: Eimeria acervulina; experiment: Cage experiments coccidiosis/chicks, Eimeria acervulina part of the mixed infection; details: for Efficacy against Eimeria acervulina (grade): first symbol of cell; for Efficacy against Eimeria acervulina (grade): key: 2 = complete action; 1 = weak action; 0 = inactive; D = death
Experimental: as §1, §2, §3, §4

[3] = test system: Eimeria maxima; experiment: Cage experiments coccidiosis/chicks, Eimeria maxima part of the mixed infection; details: for Efficacy against Eimeria maxima (grade): second symbol of cell; for Efficacy against Eimeria maxima (grade): key: 2 = complete action; 1 = weak action; 0 = inactive; D = death
Experimental: as §1, §2, §3, §4

[4] = test system: Eimeria tenella; experiment: Cage experiments coccidiosis/chicks, Eimeria tenella part of the mixed infection; details: for Efficacy against Eimeria tenella (grade): third symbol of cell; for Efficacy against Eimeria tenella (grade): key: 2 = complete action; 1 = weak action; 0 = inactive; D = death
Experimental: as §1, §2, §3, §4

Cc1oc(=O)oc1Cn1c(C(F)(F)F)nc2cc(C(F)(F)F)c(Cl)cc21 [Example 19]
% efficacy tot. ([1]; 5 ppm in feed): 7% | mortality % ([1]; 5 ppm in feed): 0% | mortality n (died/employed) ([1]; 5 ppm in feed): 0/3 | oocyst in % of inf. control tot. ([1]; 5 ppm in feed): >100% | weight % of not inf. control ([1]; 5 ppm in feed): 52% | dropping scores ([1]; 5 ppm in feed, grade 0 to 6): 4 | lesion score ([1]; 5 ppm in feed, grade 0 to 6): 6 | % efficacy tot. ([1]; 10 ppm in feed): 66% | mortality % ([1]; 10 ppm in feed): 0% | mortality n (died/employed) ([1]; 10 ppm in feed): 0/3 | oocyst in % of inf. control tot. ([1]; 10 ppm in feed): 5% | weight % of not inf. control ([1]; 10 ppm in feed): 75% | dropping scores ([1]; 10 ppm in feed, grade 0 to 6): 3 | lesion score ([1]; 10 ppm in feed, grade 0 to 6): 4 | % efficacy tot. ([1]; 25 ppm in feed): 7% | mortality % ([1]; 25 ppm in feed): 0% | mortality n (died/employed) ([1]; 25 ppm in feed): 0/3 | oocyst in % of inf. control tot. ([1]; 25 ppm in feed): >100% | weight % of not inf. control ([1]; 25 ppm in feed): 56% | dropping scores ([1]; 25 ppm in feed, grade 0 to 6): 6 | lesion score ([1]; 25 ppm in feed, grade 0 to 6): 6 | oocyst in % of inf. control ac. ([2]; 5 ppm in feed): >100% | oocyst in % of inf. control ac. ([2]; 10 ppm in feed): 5% | oocyst in % of inf. control ac. ([2]; 25 ppm in feed): >100% | Efficacy against Eimeria acervulina (grade) ([2]; Dose 5 ppm): 0 | Efficacy against Eimeria acervulina (grade) ([2]; Dose 10 ppm): 2 | Efficacy against Eimeria acervulina (grade) ([2]; Dose 25 ppm): 0 | oocyst in % of inf. control max. ([3]; 5 ppm in feed): >100% | oocyst in % of inf. control max. ([3]; 10 ppm in feed): 13% | oocyst in % of inf. control max. ([3]; 25 ppm in feed): >100% | Efficacy against Eimeria maxima (grade) ([3]; Dose 5 ppm): 0 | Efficacy against Eimeria maxima (grade) ([3]; Dose 10 ppm): 1 | Efficacy against Eimeria maxima (grade) ([3]; Dose 25 ppm): 0 | oocyst in % of inf. control ten. ([4]; 5 ppm in feed): >100% | oocyst in % of inf. control ten. ([4]; 10 ppm in feed): 5% | oocyst in % of inf. control ten. ([4]; 25 ppm in feed): >100% | Efficacy against Eimeria tenella (grade) ([4]; Dose 5 ppm): 0 | Efficacy against Eimeria tenella (grade) ([4]; Dose 10 ppm): 1 | Efficacy against Eimeria tenella (grade) ([4]; Dose 25 ppm): 0

Cc1oc(=O)oc1Cn1c(C(F)(F)F)nc2c(C(F)(F)F)cc(C(F)(F)F)cc21 [Example 28]
% efficacy tot. ([1]; 5 ppm in feed): 75% | mortality % ([1]; 5 ppm in feed): 0% | mortality n (died/employed) ([1]; 5 ppm in feed): 0/3 | oocyst in % of inf. control tot. ([1]; 5 ppm in feed): 1% | weight % of not inf. control ([1]; 5 ppm in feed): 85% | dropping scores ([1]; 5 ppm in feed, grade 0 to 6): 6 | lesion score ([1]; 5 ppm in feed, grade 0 to 6): 1 | % efficacy tot. ([1]; 10 ppm in feed): 91% | mortality % ([1]; 10 ppm in feed): 0% | mortality n (died/employed) ([1]; 10 ppm in feed): 0/3 | oocyst in % of inf. control tot. ([1]; 10 ppm in feed): 0% | weight % of not inf. control ([1]; 10 ppm in feed): 82% | dropping scores ([1]; 10 ppm in feed, grade 0 to 6): 0 | lesion score ([1]; 10 ppm in feed, grade 0 to 6): 0 | mortality % ([1]; 25 ppm in feed): 100% | mortality n (died/employed) ([1]; 25 ppm in feed): 3/3 | dropping scores ([1]; 25 ppm in feed, grade 0 to 6): 0 | oocyst in % of inf. control ac. ([2]; 5 ppm in feed): 2% | oocyst in % of inf. control ac. ([2]; 10 ppm in feed): 0% | Efficacy against Eimeria acervulina (grade) ([2]; Dose 5 ppm): 2 | Efficacy against Eimeria acervulina (grade) ([2]; Dose 10 ppm): 2 | oocyst in % of inf. control max. ([3]; 5 ppm in feed): 2% | oocyst in % of inf. control max. ([3]; 10 ppm in feed): 0% | Efficacy against Eimeria maxima (grade) ([3]; Dose 5 ppm): 2 | Efficacy against Eimeria maxima (grade) ([3]; Dose 10 ppm): 2 | oocyst in % of inf. control ten. ([4]; 5 ppm in feed): 0% | oocyst in % of inf. control ten. ([4]; 10 ppm in feed): 0% | Efficacy against Eimeria tenella (grade) ([4]; Dose 5 ppm): 2 | Efficacy against Eimeria tenella (grade) ([4]; Dose 10 ppm): 2

CO[C@@H]1[C@@H](OC)[C@H](C)[C@@](O)(CC(=O)O)O[C@H]1[C@H](C)[C@H]1O[C@@]2(CC[C@@](C)([C@H]3CC[C@@](C)([C@@H]4O[C@@H]([C@H]5O[C@](C)(O)[C@H](C)C[C@@H]5C)C[C@@H]4O[C@@H]4C[C@H](OC)[C@@H](OC)[C@H](C)O4)O3)O2)C[C@H](O)[C@H]1C [MAD, Maduramicin, reference compound]
% efficacy tot. ([1]; 1 ppm in feed): 38% | mortality % ([1]; 1 ppm in feed): 0% | mortality n (died/employed) ([1]; 1 ppm in feed): 0/3 | weight % of not inf. control ([1]; 1 ppm in feed): 77% and 56% | lesion score ([1]; 1 ppm in feed, grade 0 to 6): 5 and 6 | % efficacy tot. ([1]; 2 ppm in feed): 55% and 32% | mortality % ([1]; 2 ppm in feed): 0% | mortality n (died/employed) ([1]; 2 ppm in feed): 0/3 | weight % of not inf. control ([1]; 2 ppm in feed): 74% and 60% | lesion score ([1]; 2 ppm in feed, grade 0 to 6): 3 and 6 | % efficacy tot. ([1]; 3 ppm in feed): 61% and 93% | mortality n (died/employed) ([1]; 3 ppm in feed): 0/3 and 1/3 | weight % of not inf. control ([1]; 3 ppm in feed): 76% and 92% | dropping scores ([1]; 3 ppm in feed, grade 0 to 6): 0 | lesion score ([1]; 3 ppm in feed, grade 0 to 6): 1 | % efficay tot. ([1]; MAD 1 ppm): 7% | dropping scores ([1]; MAD 1 ppm): 6 | lesion score ([1]; MAD 1 ppm): 6 | mortality % ([1]; MAD 1 ppm): 0% | mortality n ([1]; MAD 1 ppm): 0/3 | oocyst in % of inf. control tot. ([1]; MAD 1 ppm): 29 % of inf. control | weight % of not inf. control ([1]; MAD 1 ppm): 59 % of not inf. control | % efficay tot. ([1]; MAD 2 ppm): 17% | dropping scores ([1]; MAD 2 ppm): 6 | lesion score ([1]; MAD 2 ppm): 5 | mortality % ([1]; MAD 2 ppm): 0% | mortality n ([1]; MAD 2 ppm): 0/3 | oocyst in % of inf. control tot. ([1]; MAD 2 ppm): 48 % of inf. control | weight % of not inf. control ([1]; MAD 2 ppm): 63 % of not inf. control | % efficay tot. ([1]; MAD 3 ppm): 60% | dropping scores ([1]; MAD 3 ppm): 6 | lesion score ([1]; MAD 3 ppm): 2.7 | mortality % ([1]; MAD 3 ppm): 33% | mortality n ([1]; MAD 3 ppm): 0/3 | oocyst in % of inf. control tot. ([1]; MAD 3 ppm): 9 % of inf. control | weight % of not inf. control ([1]; MAD 3 ppm): 90 % of not inf. control | oocyst in % of inf. control ac. ([2]; 1 ppm in feed): 60% and >100% | oocyst in % of inf. control ac. ([2]; MAD 1 ppm): 39 % of inf. control | oocyst in % of inf. control ac. ([2]; MAD 2 ppm): 27 % of inf. control | oocyst in % of inf. control ac. ([2]; MAD 3 ppm): 11 % of inf. control | oocyst in % of inf. control max. ([3]; 3 ppm in feed): 0% | oocyst in % of inf. control max. ([3]; MAD 1 ppm): 86 % of inf. control | oocyst in % of inf. control max. ([3]; MAD 2 ppm): >100 % of inf. control | oocyst in % of inf. control max. ([3]; MAD 3 ppm): 14 % of inf. control | oocyst in % of inf. control ten. ([4]; MAD 1 ppm): 56 % of inf. control | oocyst in % of inf. control ten. ([4]; MAD 2 ppm): 82 % of inf. control | oocyst in % of inf. control ten. ([4]; MAD 3 ppm): 6 % of inf. control
